From US10172362B2, “Biofilms, components and methods of use to reduce biofouling and contamination” (THE PENN STATE RESEARCH FOUNDATION, priority 2015, dated 2019)

B1: BdcA E50Q variant (protein, UniProt P39333 1-237, looked up, variant E50Q)
Cyclic-di-GMP-binding biofilm …: MGAFTGKTVLILGGSRGIGAAIVRRFVTDGANVRFTYAGSKDAAKRLAQQTGATAVFTDSADRDAVIDVVRKSGALDILVVNAGIGVFGEALELNADDIDRLFKINIHAPYHASVEAARQMPEGGRILIIGSVNGDRMPVAGMAAYAASKSALQGMARGLARDFGPRGITINVVQPGPIDTDANPANGPMRDMLHSLMAIKRHGQPEEVAGMVAWLAGPEASFVTGAMHTIDGAFGA

Experiments:
[1] = Rejection experiments with NF90 membranes (no biofilm); assay type: physicochemical; conditions: 1 mM and 10 mM feed in 5 mM NaCl (pH 9.0), 30 min
Protocol: Beneficial Biofilm Degrades Epichlorohydrin. Epichlorohydrin is an emerging water contaminant for which treatment techniques are not well studied. […] Measurements were taken 30 min after permeation began. Feed was in 5 mM NaCl (pH 9.0). Furthermore, when grown on the NF90 membrane, the beneficial biofilm that produces EH degraded epichlorohydrin by more than 39±4% in single pass batch filtration (See FIGS. 29 and 30). […] Biofilms grown for 24 h on NF90 membranes were challenged with 10 mM epichlorohydrin in 5 mM NaCl feed solution (pH 9). The left and adjacent right bars indicate the molar removal of epichlorohydrin (%) at 20 min and 30 min respectively, after starting filtration. The removal of epichlorohydrin by adsorption to cellular biomass was estimated using a dead cell control experiment. EH− is E. coli TG1/pBdcAE50Q-lasI-lasR/pBNos and EH+ is E. coli TG1/pBdcAE50Q-lasI-lasR/pBNos-echA. Dead cells were obtained by autoclaving overnight cultures of the EH+ strain. The error bars are standard deviation for three independent colonies.

biofilm dispersal = conditions: cited from earlier work

| Molecule | passage through NF90 membrane [1] | higher levels of biofilm dispersal (biofilm dispersal) |
| --- | --- | --- |
| ClCC1CO1 (centres unmarked) [Epichlorohydrin] | passes through the membrane used |  |
| B1 |  | six-fold higher |
